Read-outs that look alike come from different tables or passages of the source.
Experiments:
[1] = target: T1, HIV protease (Human immunodeficiency virus type 1 group M subtype B, UniProt P04585); assay: Recombinant HIV Protease HPLC Assay; type: biochemical
T1 construct: HIV protease was expressed in E. coli; made in house; host or cells: E. coli (plasmid pBRT1 prt+)
Source text: The procedure is based on the capacity of the test compound to inhibit enzymatic cleavage by HIV protease of a decapeptide (the substrate) having an amino acid sequence which includes a known HIV protease cleavage site of a HIV polyprotein; see H. G. Krausslich et al., Proc. Natl. Acad. Sci. USA, 86, 807 (1989). Details of this assay together with the results obtained for exemplified compounds of formula 1 are described in the examples hereinafter.
Recombinant HIV Protease HPLC Assay:
Enzyme: HIV protease was expressed in E. coli {construct pBRT1 prt^+, see W. G. Farmerie et al., Science, 236, 305 (1987)}, according to the following protocol:
E. coli cells containing the pBRT1 prt^+ plasmid were used to inoculate a seed culture media composed of Luria-Bertani Broth containing 100 μg/mL of ampicillin. Flasks were incubated at 37° under agitation for 17 h. Production flasks containing sterile M9 broth, supplemented with 100 μg/mL of ampicillin, were inoculated at a level of 1% (v/v) using the seed culture described above. Total volume in each production flask was 500 mL in a 2 L Erlenmeyer flask. Flasks were incubated at 37° under agitation until a cell concentration corresponding to an optical density ([…]) of 0.6 was reached (no dilution). This time span was routinely 3-4 h. Flasks were then supplemented with 5 mM isopropylthiogalactoside (IPTG, Research Organics, Cleveland, Ohio, USA) and incubation was continued until the cell concentration reached an optical density of 0.2 at 16-fold dilution. Flasks were then supplemented with 1 mM phenylmethylsulfonyl fluoride (PMSF) and rapidly chilled to 4°. The bacterial cells were recovered by centrifugation at 4°. The wet pellet was stored at -70°.
All steps below were performed at 4° unless otherwise indicated. Thawed cells were mixed with buffer A {50 mM tris(hydroxymethyl)[…] HCl (Tris-HCl, pH 7.4); 0.6 mM ethylenediaminetetraacetic acid (EDTA); 0.375M NaCl, 0.2% Nonidet P-40® (BDH Chemicals Ltd., Poole, UK); 1 mM PMSF}, at a ratio of one part cells to nine parts buffer A. Diatomaceous earth (Celite 545®, John Manville, Lompoc, Calif. USA) was added at a ratio of two parts to one part of wet cell weight. The resulting slurry was homogenized at high speed (ca. 20,000 rpm) on a Waring® industrial blender for 8×15 sec. pulses. Cell debris/Celite® was collected by centrifugation and the resulting pellet was extracted with 4.5 parts of buffer A to one part wet solids using the homogenization procedure described above. Supernatants from both homogenization steps were combined and soluble protein was precipitated by the addition of solid (NH4)2 SO4 to yield a final concentration of 75% saturation. This mixture was agitated for 60 min and the precipitate was recovered by centrifugation. The resulting pellet was suspended in buffer B {50 mM Tris-HCl, pH 8; 30 mM NaCl; 1 mM DL-dithiothreitol (DTT); 1 mM EDTA; 1 mM PMSF; 10% glycerol}, and dialyzed for 18 h against the same buffer.
An aliquot of the dialyzed extract containing 150 mg of the protein was loaded onto a Sephadex A25® anion exchange column (Pharmacia, Uppsala, Sweden) with bed dimensions of 70 cm length and 2.5 cm diameter. The sample was eluted isocratically with buffer B at a linear flow rate of 10 cm/h. Fractions containing HIV protease activity (see below for assay description) were combined, and soluble protein was precipitated by the addition of saturated aqueous (NH4)2 SO4 to yield a total (NH4)2 SO4 concentration of 85% saturation. Precipitated protein was removed by centrifugation and the resulting pellet was dissolved in buffer C {50 mM 2-(4-morpholino)ethanesulfonic acid (MES), pH 5.5; 150 mM NaCl; 1 mM DTT; 1 mM EDTA; 10% glycerol}. This preparation was dialyzed for 18 h against buffer C, and then frozen at -70°. All crude extracts were purified by chromatography in aliquots containing 150 mg of protein in the same manner as described above. […]

[2] = test system: HIV (H9/HTLV-IIIB) in C8166 cells; assay: plaque assay: inhibition of syncytia formation in HIV-infected C8166 cells; type: cell-based; conditions: Human immunodeficiency virus 1, IIIB, 72 h, 50% inhibition of syncytia formation
Source text: Typical of such procedures are those described by S. Harada and N. Yamamoto, Jpn. J. Cancer Res. (Gann), 76, 432 (1985), and S. Harada et al., Science, 229, 563 (1985). An assay based on the latter procedures is described in the examples hereinafter.
The following protocol, used for screening antiviral effects of the compounds of formula 1, is adapted from a plaque assay utilizing HTLV-I transformed cells, previously reported by Harada et al., supra. HTLV-I transformed cells are used because of the rapidity with which HIV will replicate in the cells.
1. The test compound is dissolved in dimethylsulfoxide to a concentration of 5 mg/mL. The resultant solution can be stored at 4° until use.
2. The resultant solution is diluted in RPMI 1640 (Gibco Laboratories, St. Lawrence, Mass., USA) to four times (4×) the final concentration which is to be tested. Once diluted in RPMI 1640, the solution is used in the cell culture assay within 4 h.
3. The 4× solution (50 μL) is added to triplicate wells of a 96 well flat bottomed microtiter plate. RPMI (50 μL) also is added to control wells.
4. C8166 cells (5×10^4) in 50 μL of HEPES-buffered RPMI 1640 (pH=7.2), 10% heat inactivated fetal calf serum (FCS), […] gentamicin (complete media) are added to all wells.
5. Fifty times TCID50 of H9/HTLV-IIIB stock (stored in liquid nitrogen as cell culture supernatant in 50% FCS) in 100 μL of complete media is added to all wells. Infectious titer of virus stocks are as previously determined by end point dilution on C8166 cells. Titer of stocks are stable for 6-12 months when stored at -193°.
6. Microtiter plates are then placed on level shelves of a 37°, 5% CO2 humidified incubator for 72 h.
7. Plates are then removed and centers of syncytia are counted in each well by low power phase contrast light microscopy. […] Control wells should have between 25 and 75 centers of syncytia per well.
8. Percent inhibition of syncytia formation is calculated by the formula: [formula]
The concentration of the test compound which causes a 50% inhibition of syncytia formation, i.e. the EC50, is determined by using the technique of serial dilution of the working solution at step 3 and by using non-linear regression analysis (SAS® program) to graphically plot the observed percent inhibition of syncytia formation against the various concentrations of the test compound.

| Compound | IC50 ([1]; Table IV, 37°, 30 min, pH 5.5) [nM] | EC50 ([2]; Table IV) [nM] | IC50 [1] [nM] | IC50 ([1]; Table V, 37°, 30 min, pH 5.5) [nM] | EC50 ([2]; Table V) [nM] |
| --- | --- | --- | --- | --- | --- |
| CC(C)(C)NC(=O)[C@@H]1C[C@H](Sc2ccncc2)CCN1C[C@@H](O)[C@H](Cc1ccccc1)NC(=O)OCc1ccccc1 [Table IV, entry 29] | 8 | 140 | – | – | – |
| CC(C)(C)NC(=O)[C@@H]1C[C@H](Sc2ncccn2)CCN1C[C@@H](O)[C@H](Cc1ccccc1)NC(=O)OCc1ccccc1 [Table IV, entry 30, N-tert-butyl-1-{3(S)-(benzyloxycarbonylamino)-2(R)-hydroxy-4-phenylbutyl}-4(R)-(2-pyrimidinylthio)piperidine-2(S)-carboxamide] | 19 | 822 | – | – | – |
| Cc1cc(C)nc(S[C@@H]2CCN(C[C@@H](O)[C@H](Cc3ccccc3)NC(=O)OCc3ccccc3)[C@H](C(=O)NC(C)(C)C)C2)n1 [Table IV, entry 31, N-tert-butyl-1-{3(S)-(benzyloxycarbonylamino)-2(R)-hydroxy-4-phenylbutyl}-4(R)-(4,6-dimethyl-2-pyrimidinylthio)-piperidine-2(S)-carboxamide] | – | 290 | 12 | – | – |
| CC(C)[C@H](NC(=O)OCc1ccccc1)C(=O)N[C@@H](Cc1ccccc1)[C@H](O)CN1CC[C@@H](Sc2ncccn2)C[C@H]1C(=O)NC(C)(C)C [Table IV, entry 35, N-tert-butyl-1-{3(S)-{{N-(benzyloxycarbonyl)valyl}amino}-2(R)-hydroxy-4-phenylbutyl}-4(R)-(2-pyrimidinylthio)piperidine-2(S)-carboxamide] | 3.7 | 15 | – | – | – |
| Cc1cc(C)nc(S[C@@H]2CCN(C[C@@H](O)[C@H](Cc3ccccc3)NC(=O)[C@@H](NC(=O)OCc3ccccc3)C(C)C)[C@H](C(=O)NC(C)(C)C)C2)n1 [Table IV, entry 36, N-tert-butyl-1-{3(S)-{{N-(benzyloxycarbonyl)valy}amino}-2(R)-hydroxy-4-phenylbutyl}-4(R)-(4,6-dimethyl-2-pyrimidinylthio)piperidine-2(S)-carboxamide] | 3 | 9 | – | – | – |
| CC(C)[C@H](NC(=O)OCc1ccccc1)C(=O)N[C@@H](Cc1ccccc1)[C@H](O)CN1CC[C@@H](SCc2ccccc2)C[C@H]1C(=O)NC(C)(C)C [Table IV, entry 37, N-tert-butyl-1-{3(S)-{{N-(benzyloxycarbonyl)valyl}amino}-2(R)-hydroxy-4-phenylbutyl}-4(R)-(benzylthio)piperidine-2(S)-carboxamide] | 2.3 | 7 | – | – | – |
| CC(C)[C@H](NC(=O)N(C)Cc1ccccn1)C(=O)N[C@@H](Cc1ccccc1)[C@H](O)CN1CC[C@@H](Sc2ccccc2)C[C@H]1C(=O)NC(C)(C)C [Table IV, entry 38, N-tert-butyl-1-{2(R)-hydroxy-3(S)-{N-{{N-methyl-N-(2-pyridinylmethyl)amino}carbonyl}valyl}-4-phenylbutyl}-4(R)-(phenylthio)piperidine-2(S)-carboxamide] | 4.3 | 14 | – | – | – |
| CC(C)[C@H](NC(=O)c1ccc2ccccc2n1)C(=O)N[C@@H](Cc1ccccc1)[C@H](O)CN1CC[C@@H](Sc2ncccn2)C[C@H]1C(=O)NC(C)(C)C [Table V, entry 1, N-tert-butyl-1-{2(R)-hydroxy-4-phenyl-3(S)-{{N-(2-quinolylinylcarbonyl)valyl}amino}butyl}-4(R)-(2-pyrimidinylthio)piperidine-2-carboxamide] | – | – | – | 3.6 | 7 |
| CC(C)[C@H](NC(=O)c1ccc2ccccc2n1)C(=O)N[C@@H](Cc1ccccc1)[C@H](O)CN1CC[C@@H](SCc2ccncc2)C[C@H]1C(=O)NC(C)(C)C [Table V, entry 2(S), N-tert-butyl-1-{2(R)-hydroxy-4-phenyl-3(S)-{{N-(2-quinolylinylcarbonyl)valyl}amino}butyl}-4(R)-{(4-pyridinylmethyl)thio}piperidine-2-carboxamide] | – | – | – | 2.8 | 4 |
| CC(C)[C@H](NC(=O)c1ccc2ccccc2n1)C(=O)N[C@@H](Cc1ccccc1)[C@H](O)CN1CC[C@@H](OCc2ccccn2)C[C@H]1C(=O)NC(C)(C)C [Table V, entry 3, N-tert-butyl-1-{2(R)-hydroxy-4-phenyl-3(S)-{{N-(2-quinolylinylcarbonyl)valyl}amino}butyl}-4(R)-(2-pyridinylmethoxy)piperidine-2-carboxamide] | – | – | – | 3.9 | 24 |
| Cc1cc(C)nc(S[C@@H]2CCN(C[C@@H](O)[C@H](Cc3ccccc3)NC(=O)[C@@H](NC(=O)c3ccc4ccccc4n3)C(C)C)[C@H](C(=O)NC(C)(C)C)C2)n1 [Table V, entry 4, N-tert-butyl-1-{2(R)-hydroxy-4-phenyl-3(S)-{{N-(2-quinolylinylcarbonyl)valyl}amino}butyl}-4(R)-{(4,6-dimethyl-2-pyrimidinyl)thio}piperidine-2-carboxamide] | – | – | – | 2.7 | 8 |
| CC(C)[C@H](NC(=O)c1ccc2ccccc2n1)C(=O)N[C@@H](Cc1ccccc1)[C@H](O)CN1CC[C@@H](Sc2ccncc2)C[C@H]1C(=O)NC(C)(C)C [Table V, entry 5, N-tert-butyl-1-{2(S)(R)-hydroxy-4-phenyl-3(S)-{{N-(2-quinolylinylcarbonyl)valyl}amino}butyl}-4(R)-(4-pyridinylthio)piperidine-2-carboxamide] | – | – | – | 1.5 | 3 |
| CC(C)[C@H](NC(=O)c1ccc2ccccc2n1)C(=O)N[C@@H](Cc1ccccc1)[C@H](O)CN1CC[C@@H](Sc2ccccn2)C[C@H]1C(=O)NC(C)(C)C [Table V, entry 6, N-tert-butyl-1-{2(S)(R)-hydroxy-4-phenyl-3(S)-{{N-(2-quinolylinylcarbonyl)valyl}amino}butyl}-4(R)-(2-pyridinylthio)piperidine-2-carboxamide] | – | – | – | 1.9 | 4 |

Reference: US5614533A, “Substituted pipecolinic acid derivatives as HIV protease inhibitors” (Bio-Mega/Boehringer Ingelheim Research, Inc., priority 1994, dated 1997)
